Test results published in patent publication US20050009840A1 (SUGEN, INC., priority 2003, published 2005).

What follows are compounds tested against T1, Met kinase domain (GST fusion protein) (Homo sapiens, UniProt P08581) (assay: Met transphosphorylation assay (ELISA, poly(glu-tyr) substrate)). Details: read-out: Met IC50.
T1 construct: Purified GST fusion protein containing the Met kinase domain
Format: biochemical
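Note: Cell-free ELISA with plate-bound poly(Glu:Tyr 4:1) phosphorylated by GST-fused Met kinase domain plus ATP and Mn2+, phosphotyrosine detected by anti-phosphotyrosine antibody with HRP and ABTS read-out.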

T1 sequence (P08581 1078-1345 limits assumed): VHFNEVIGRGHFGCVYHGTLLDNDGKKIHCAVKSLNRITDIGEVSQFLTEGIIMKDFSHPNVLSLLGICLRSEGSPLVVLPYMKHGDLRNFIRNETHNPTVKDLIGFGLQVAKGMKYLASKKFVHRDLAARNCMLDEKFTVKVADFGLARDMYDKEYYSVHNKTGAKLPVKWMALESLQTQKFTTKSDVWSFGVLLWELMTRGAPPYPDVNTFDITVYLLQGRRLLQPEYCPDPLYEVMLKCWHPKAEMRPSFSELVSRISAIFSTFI

SMILES	IC50 [nM]
CC(=O)N1CCN(CCS(=O)(=O)Nc2cccc(-c3cnc(N)c(OCc4c(F)ccc(F)c4Cl)n3)c2)CC1 [II-23, 2-(4-Acetyl-piperazin-1-yl)-ethanesulfonic acid {3-[5-amino-6-(2-chloro-3,6-difluoro-benzyloxy)-pyrazin-2-yl]-phenyl]-amide]	2790
Nc1ncc(-c2cccc(NS(=O)(=O)CCN3CCCCC3)c2)nc1OCc1c(F)ccc(F)c1Cl [II-24, 2-Piperidin-1-yl-ethanesulfonic acid {3-[5-amino-6-(2-chloro-3,6-difluoro-benzyloxy)-pyrazin-2-yl]-phenyl}-amide]	3500
CCN(CC)CCS(=O)(=O)Nc1cccc(-c2cnc(N)c(OCc3c(F)ccc(F)c3Cl)n2)c1 [II-25, 2-Diethylamino-ethanesulfonic acid {3-[5-amino-6-(2-chloro-3,6-difluoro-benzyloxy)-pyrazin-2-yl]-phenyl}-amide]	3700
Nc1ncc(-c2cccc(NS(=O)(=O)CCN3CCOCC3)c2)nc1OCc1c(F)ccc(F)c1Cl [II-26, 2-Morpholin-4-yl-ethanesulfonic acid {3-[5-amino-6-(2-chloro-3,6-difluoro-benzyloxy)-pyrazin-2-yl]-phenyl}-amide]	3300
Nc1ncc(-c2cccc(NS(=O)(=O)CCN3CCCC3)c2)nc1OCc1c(F)ccc(F)c1Cl [II-27, 2-Pyrrolidin-1-yl-ethanesulfonic acid {3-[5-amino-6-(2-chloro-3,6-difluoro-benzyloxy)-pyrazin-2-yl]-phenyl}-amide]	1800
CN(C)CCS(=O)(=O)Nc1cccc(-c2cnc(N)c(OCc3c(F)ccc(F)c3Cl)n2)c1 [II-28, 2-Dimethylamino-ethanesulfonic acid {3-[5-amino-6-(2-chloro-3,6-difluoro-benzyloxy)-pyrazin-2-yl]-phenyl}-amide]	2280
Nc1ncc(-c2cccc(NS(=O)(=O)CCN3CCN(C(=O)CO)CC3)c2)nc1OCc1c(F)ccc(F)c1Cl [II-29]	1820
Nc1ncc(-c2cccc(NS(=O)(=O)CCNCC3CC3)c2)nc1OCc1c(F)ccc(F)c1Cl [II-30, 2-(Cyclopropylmethyl-amino)-ethanesulfonic acid {3-[5-amino-6-(2-chloro-3,6-difluoro-benzyloxy)-pyrazin-2-yl]-phenyl}-amide]	1840
Nc1ncc(-c2cccc(NS(=O)(=O)CCN3CC[C@@H](O)C3)c2)nc1OCc1c(F)ccc(F)c1Cl [II-31, 2-[(3R)-3-Hydroxy-pyrrolidin-1-yl]-ethanesulfonic acid {3-[5-amino-6-(2-chloro-3,6-difluoro-benzyloxy)-pyrazin-2-yl]-phenyl}-amide]	2160
Nc1ncc(-c2cccc(NS(=O)(=O)CCNC3CC3)c2)nc1OCc1c(F)ccc(F)c1Cl [II-32, 2-Cyclopropylamino-ethanesulfonic acid {3-[5-amino-6-(2-chloro-3,6-difluoro-benzyloxy)-pyrazin-2-yl]-phenyl}-amide]	2130
Nc1ncc(-c2ccc(C(=O)N3CCC[C@@H]3CN3CCCC3)cc2)nc1OCc1c(F)ccc(F)c1Cl [II-34, {4-[5-Amino-6-(2-chloro-3,6-difluoro-benzyloxy)-pyrazin-2-yl]-phenyl)-[(2R)-2-pyrrolidin-1-ylmethyl-pyrrolidin-1-yl]-methanone]	150
Nc1ncc(-c2ccc(C(=O)NCCN3CCCC3)cc2)nc1OCc1c(F)ccc(F)c1Cl [II-35, 4-[5-Amino-6-(2-chloro-3,6-difluoro-benzyloxy)-pyrazin-2-yl]-N-(2-pyrrolidin-1-yl-ethyl)-benzamide]	130
Nc1ncc(-c2ccc(C(=O)N3CC[C@H](N)C3)cc2)nc1OCc1c(F)ccc(F)c1Cl [II-36, {4-[5-Amino-6-(2-chloro-3,6-difluoro-benzyloxy)-pyrazin-2-yl]-phenyl}-[(3S)-3-amino-pyrrolidin-1-yl]-methanone]	370
CC(=O)N1CCN(CCNC(=O)c2ccc(-c3cnc(N)c(OCc4c(F)ccc(F)c4Cl)n3)cc2)CC1 [II-37, N-[2-(4-Acetyl-piperazin-1-yl)-ethyl]-4-[5-amino-6-(2-chloro-3,6-difluoro-benzyloxy)-pyrazin-2-yl]-benzamide]	1350
